# Results taken from PMC6934184, “Selective DNA-PKcs inhibition extends the therapeutic index of localized radiotherapy and chemotherapy” (The Journal of Clinical Investigation, 2019).
# Target: T1, EPHA3 (Homo sapiens, UniProt P29320)
# T1 construct: purchased Thermo Fisher Scientific (Life Technologies) SelectScreen
# Test: SelectScreen LanthaScreen
# Format: binding
# Settings: read-out: % displacement
# Method in brief: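 SelectScreen broad panel; activity (Z'LYTE, Adapta) plus binding formats. ATP: Km app for CSF1R Z'LYTE; 10 for CAMK1 Adapta. Readout = % per kinase.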
# T1 sequence (P29320 21-983): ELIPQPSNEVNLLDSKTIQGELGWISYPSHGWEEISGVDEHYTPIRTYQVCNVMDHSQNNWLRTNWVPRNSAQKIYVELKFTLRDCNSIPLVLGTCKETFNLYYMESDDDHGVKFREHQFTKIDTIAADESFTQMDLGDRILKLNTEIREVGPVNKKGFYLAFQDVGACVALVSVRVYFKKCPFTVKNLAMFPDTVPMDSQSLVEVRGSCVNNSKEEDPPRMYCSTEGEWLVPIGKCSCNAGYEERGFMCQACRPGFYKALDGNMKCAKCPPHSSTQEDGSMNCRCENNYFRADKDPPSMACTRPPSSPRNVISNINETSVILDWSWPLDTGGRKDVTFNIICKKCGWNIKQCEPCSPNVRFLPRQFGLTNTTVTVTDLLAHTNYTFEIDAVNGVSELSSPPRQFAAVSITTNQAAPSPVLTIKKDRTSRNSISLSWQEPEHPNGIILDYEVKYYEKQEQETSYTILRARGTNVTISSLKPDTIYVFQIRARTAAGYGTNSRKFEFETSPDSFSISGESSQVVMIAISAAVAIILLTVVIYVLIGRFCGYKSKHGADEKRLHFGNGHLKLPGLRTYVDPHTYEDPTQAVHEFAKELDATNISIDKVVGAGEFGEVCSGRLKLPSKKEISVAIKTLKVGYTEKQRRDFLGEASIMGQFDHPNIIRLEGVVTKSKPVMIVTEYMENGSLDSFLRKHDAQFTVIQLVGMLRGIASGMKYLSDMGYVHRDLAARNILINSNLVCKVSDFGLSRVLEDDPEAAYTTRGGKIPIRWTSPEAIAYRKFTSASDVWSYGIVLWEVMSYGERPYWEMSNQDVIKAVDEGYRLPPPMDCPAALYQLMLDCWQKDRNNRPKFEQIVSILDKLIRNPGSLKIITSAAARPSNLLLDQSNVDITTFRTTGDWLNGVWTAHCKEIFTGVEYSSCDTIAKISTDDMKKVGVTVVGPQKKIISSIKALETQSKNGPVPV
structure (smiles),measurement,value
CN(C(=O)CN1CCOCC1)c1ccc2sc3c(-c4cccc5c(=O)cc(N6CC7CCC(C6)O7)oc45)cccc3c2c1 [NU5455],inhibition at 1 µM,-0.3%
